For assay [1], the target named is T1, recombinant p66/p51 HIV-1 reverse transcriptase (Human immunodeficiency virus type 1 group M subtype B, UniProt P04585).
T1 construct: recombinant p66/p51 HIV-1 reverse transcriptase; purchased Biotechnology General, Rehovot, Israel
In words: 3HdCTP incorporation assay with recombinant RT. The following applies: read-out: concentration resulting in 50% inhibition of incorporation of 3HdCTP; (rI)n-dC12-18 template primer. Format: biochemical. The procedure: Wild type HIV-1SUM9, and multiple dideoxy nucleoside-resistant HIV-1SUM8 (Q151M mutation), HIV-1SUM12 (F77L/F116Y/Q151M) and HIV-1SUM13 (A62V/V751/F77L/F116Y/Q151M) MICs were provided by Dr. Mitsuya as described by Shirasaka et al., Proc. Natl. Acad. Sci. USA 92: 2398-2402 (1995). The synthesis and preparation of 3TC-TP were carried out as described by Schinazi et al., Antimicrob. Agents Chemother. 36: 2423-2431 (1992). The crude 3TC-5-TP was purified by FPLC using a HiLoad 26/10Q Sepharose Fast Flow™ Pharmacia chromatography column (Pharmacia, Piscataway, N.J.) and gradient of TEAE buffer (pH 7.0). The compound was characterized by UV spectroscopy, proton and phosphorous NMR, mass spectroscopy and HPLC.

A further assay has as its system HIV-1 RT. In words: Amp-RT assay, AZT-TP and other NRTI-TPs, reference viruses. It counts as biochemical.
The mark [2] stands for this setting: MNR HIV-1SUM12 (F77L, F116Y, Q151M).
The mark [3] stands for this setting: MNR HIV-1SUM13 (A62V, V75I, F77L, F116Y, Q151M).

With `Nc1ccn([C@@H]2CS[C@H](COP(=O)(O)OP(=O)(O)OP(=O)(O)O)O2)c(=O)n1` [3TC-TP, 3TC-5′-triphosphate], the IC50 in assay [1] amounted to 1300 nM; in the assay with HIV-1 RT (MNR HIV-1SUM8 (Q151M)) it was 900 nM; in the assay with HIV-1 RT (setting [2]), 2700 nM; in the assay on HIV-1 RT (setting [3]), 3300 nM; in the assay on HIV-1 RT (WT HIV-1SUM9) it was 400 nM; with HIV-1 RT (WT HIV-1xxBRUpitt) it was 600 nM. In addition, the entries for the “fold resistance (IC50) as compared to the mean IC values of WT HIV-1” value in the assay on HIV-1 RT (MNR HIV-1SUM8 (Q151M)), in the assay on HIV-1 RT (setting [2]) and in the assay on HIV-1 RT (setting [3]) were “(1.8) fold”, “(5.4) fold” and “(6.6) fold”, respectively.

The record behind these values is patent US7691572B2, “Method and kit for detecting resistance to antiviral drugs” (priority 1998, dated 2010).
